# Source: patent US20170157150A1, “ORAL DOSAGE FORM COMPRISING TRI-SUBSTITUTED GLYCEROL COMPOUNDS” (Alphaptose GmbH, priority 2006, published 2017)
# What was measured:
# [1] = Differential scanning calorimetry, excipient compatibility; assay type: physicochemical; details: crystalline compound, heating 5 K/min up to 300° C., cooling 1 K/min down to −30° C.
# Protocol: FIG. 1. Depicts the results of differential scanning calorimetry (DCS) analyses for determining excipient compatibility using a Netzsch DSC 204 apparatus (Netzsch Gerätebau GmbH, Selb, Germany) with a heating rate of 5 K/min up to 300° C. and a cooling rate of 1 K/min down to −30° C. (temperature onset at room temperature (approx. 20° C.)). The below-mentioned samples were tested: crystalline 1-O-octadecyl-2-O-methyl-glycero-3-phosphocholine alone (black curves), the following excipients alone (red curves): lactose (FIG. 1A), crospovidone (FIG. 1B), starch 1500 (FIG. 1C), siliciumdioxide (FIG. 1D), as well as magnesium stearate (FIG. 1E), and binary mixtures of 1-O-octadecyl-2-O-methyl-glycero-3-phosphocholine and each excipient (green curves).
# Differential scanning calorimetry (DCS) analyses were performed for determining the compatibility of different excipients for formulating tablets according to the present invention.
# DSC is a thermoanalytical technique in which the difference in the amount of heat required to increase the temperature of a sample and reference is measured as a function of temperature. Both the sample and reference are maintained at nearly the same temperature throughout the experiment. Generally, the temperature program for a DSC analysis is designed such that the temperature increases or decreases linearly as a function of time. […]
# [2] = test system: LNCaP androgen-sensitive human prostate adenocarcinoma cells; assay: Trypan blue dye exclusion, percentage of living tumor cells; assay type: cell-based; details: for survival rate: untreated controls about 86%
# Protocol: (§1) FIG. 3. Depicts the in vitro effects of 1-O-octadecyl-2-O-methyl-glycero-3-phosphocholine (final concentration 10 μM), (ionizing) radiation (absorbed dose of 5 Gray units; indicated as “RT”), and a combination thereof on programmed cell death (apoptosis) and the survival rate of LNCaP androgen-sensitive human prostate adenocarcinoma cells. Apoptosis was determined using the Apo-ONE™ Homogenous Caspase-3/7 Assay, Promega, Inc., Madison, Wis., USA according to the manufacturer's instructions. The percentage of living cancer cells was estimated by means of trypan blue dye exclusion as described (Freshney, R. I. (1994) Culture of Animal Cells: A Manual of Basic Technique. 3rd Ed. Wiley-Liss. New York. USA). The cells were exposed to radiation six hours after (FIG. 3A), concomitantly with (FIG. 3B), or six hours before administration of 1-O-octadecyl-2-O-methyl-glycero-3-phospho-choline (FIG. 3C). The caspase assay was performed 12 hours after exposure to radiation. The respective data shown represent the average of two independent experiments.
# (§2) First, the in vitro effects of 1-O-octadecyl-2-O-methyl-glycero-3-phosphocholine, (ionizing) radiation, and a combination thereof on programmed cell death (apoptosis) and the survival rate of LNCaP androgen-sensitive human prostate adenocarcinoma cells were measured. The LNCaP cell line was established from a metastatic lesion of the adenocarcinoma. The cells were treated with a final concentration of 10 μM 1-O-octadecyl-2-O-methyl-glycero-3-phosphocholine and (ionizing) radiation corresponding to an absorbed dose of 5 Gray units.
# (§3) Apoptosis was determined using the Apo-ONE™ Homogenous Caspase-3/7 Assay, Promega, Inc., Madison, Wis., USA according to the manufacturer's instructions. The percentage of living tumor cells was estimated by means of trypan blue dye exclusion as described (Freshney, R. I. (1994) Culture of Animal Cells: A Manual of Basic Technique. 3rd Ed. Wiley-Liss. New York. USA)
# (§4) The cells were exposed to radiation six hours after (FIG. 3A), concomitantly with (FIG. 3B), or six hours before administration of 1-O-octadecyl-2-O-methyl-glycero-3-phospho-choline (FIG. 3C). The caspase assay was performed 12 hours after exposure to radiation. The respective data shown represent the average of two independent experiments.
# [3] = test system: LNCaP androgen-sensitive human prostate adenocarcinoma cells; assay: Apo-ONE Homogenous Caspase-3/7 Assay (apoptosis); assay type: cell-based
# Protocol: as §1, §2, §3, §4
# (§5) In a further approach, 10 μM 1-O-octadecyl-2-O-methyl-glycero-3-phosphocholine (final concentration; “CHEM”) and (ionizing) radiation (5 Gray units; “RT”) were administered simultaneously to the LNCaP cells but the subsequent incubation period was extended to 24 hours. Apoptosis was measured using the Apo-ONE™ Homogenous Caspase-3/7 Assay as described above and expressed as relative fluorescence units (RFLU). The percentage of apoptotic cells was determined by flow cytometric analysis of annexin V-PE positive-stained and 7-AAD (7-Amino ActinomycinD) negative-stained cells (both purchased from BD Biosciences, San Jose, Calif., USA) according to established standard protocols. The data represent means±SEM from three independent experiments.
# (§6) Next, the interaction of 1-O-octadecyl-2-O-methyl-glycero-3-phosphocholine administration (“CHEM”) and androgen deprivation (“AD”) was investigated. LNCaP cells were deprived of androgen for two days by charcoal absorption of serum according to established procedures well known in the art. CHEM was added in a final concentration of 5 μM and 10 μM, respectively.
# (§7) Apoptosis was measured using the Apo-ONE™ Homogenous Caspase-3/7 Assay as described above and expressed as relative fluorescence units (RFLU). The percentage of apoptotic cells was determined via annexin V-PE/7-AAD staining as described above. The caspase-3/7 assay and annexin staining were performed 22 hours after CHEM treatment.
# [4] = test system: LNCaP C4-2 cells; assay: Apoptosis after CHEM+RT in androgen-insensitive cells; assay type: cell-based; details: data not shown
# [5] = test system: LNCaP cells grown orthotopically in the prostates of nude mice; assay: Orthotopic LNCaP prostate tumor model, serum PSA and tumor volume (MRI); assay type: in vivo; details: 30 mg/kg body weight/day intraperitoneally for 15 days + radiation 5 Gray on day 7; preliminary study
# Protocol: FIG. 4. Depicts the in vivo effects of 1-O-octadecyl-2-O-methyl-glycero-3-phosphocholine (30 mg/kg body weight/day administered intraperitoneally for 15 days: FIG. 4A), (ionizing) radiation (absorbed dose of 5 Gray units administered on day 7; FIG. 4C), and a combination thereof (FIG. 4B) on LNCaP cells grown orthotopically in the prostates of nude mice (seven mice/group). Tumor growth was assessed via determining the serum level of the prostate-specific antigen (PSA) using a commercially available test kit as well as the tumor volume by means of magnetic resonance imaging.
# Additionally, in a preliminary study the in vivo effects of 1-O-octadecyl-2-O-methyl-glycero-3-phosphocholine (ionizing) radiation, and a combination thereof on LNCaP cells grown orthotopically in the prostates of nude mice (seven mice/group) was investigated.
# 1-O-octadecyl-2-O-methyl-glycero-3-phosphocholine was administered intraperitoneally in a dose of 30 mg/kg body weight/day administered intraperitoneally for 15 days (FIG. 4A; studies using different routes of administration such as orally or by gavage are currently under way). […] Tumor growth was assessed via determining the serum level of the prostate-specific antigen (PSA) using a commercially available test kit as well as the tumor volume by means of magnetic resonance imaging.
# [6] = test system: LNCaP-Res cells; assay: Apoptosis after CHEM+RT in androgen-insensitive cells; assay type: cell-based; details: data not shown
# [7] = test system: LNCaP cells; assay: Flow cytometry of annexin V-PE positive / 7-AAD negative cells (apoptotic cells); assay type: cell-based, human
# Protocol: as §5, §6, §7
# [8] = 10 μM CHEM + RT (5 Gray) simultaneously, 24 hours incubation, means±SEM, p<0.0001 vs CHEM and RT
# [9] = AD + R1881 (two days prior to CHEM) + 5 μM CHEM, 22 hours
# [10] = AD + R1881 (two days prior to CHEM) + 10 μM CHEM, 22 hours
compound,measurement,setting,value
OC[C@H]1O[C@@H](O[C@H]2[C@H](O)[C@@H](O)C(O)O[C@@H]2CO)[C@H](O)[C@@H](O)[C@H]1O (stereo partly drawn) [lactose],interaction of excipient with 1-O-octadecyl-2-O-methyl-glycero-3-phosphocholine (DSC thermogram of binary mixture),[1],show such interactions
CCCCCCCCCCCCCCCCCCOCC(COP(=O)([O-])OCC[N+](C)(C)C)OC (stereo not drawn) [1-O-octadecyl-2-O-methyl-glycero-3-phosphocholine],survival rate of tumor cells,"[2]; 10 μM compound alone, FIG. 3A experiment, untreated controls about 85%",about 60%
same,survival rate,"[2]; 10 μM compound alone, FIG. 3B experiment",about 50%
same,survival of cells,"[2]; 10 μM compound alone, FIG. 3C experiment",about 45%
same,survival rate,"[2]; 10 μM compound concomitantly with radiation (5 Gray), FIG. 3B",about 55%
same,survival of cells,"[2]; 10 μM compound six hours after radiation (5 Gray), combined treatment, FIG. 3C",about 40%
same,survival of tumor cells,"[2]; 10 μM compound six hours prior to radiation (5 Gray), combined treatment, FIG. 3A, untreated controls about 85%",about 45%
same,Caspase-3/7 activity (RFLU),[3]; [8],1514 ± 102 RFLU
same,Caspase-3/7 activity (RFLU),"[3]; 10 μM CHEM alone, 24 hours incubation, means±SEM, three experiments, control 193 ± 39",580 ± 207 RFLU
same,"extent of apoptosis, increase in cells only exposed to the chemical as compared to combined treatment","[3]; 10 μM compound six hours after radiation (5 Gray), FIG. 3C",about 25%
same,increase in apoptotic response (caspase-3/7 assay),"[3]; 10 μM compound six hours prior to radiation (5 Gray), combined treatment, assay 12 hours after radiation, FIG. 3A",> 2.5 fold
same,Caspase-3/7 activity (RFLU),[3]; [9],453 RFLU
same,Caspase-3/7 activity (RFLU),[3]; [10],962 RFLU
same,Caspase-3/7 activity (RFLU),"[3]; Contr. cells + 5 μM CHEM, 22 hours after treatment, Contr. 235",380 RFLU
same,Caspase-3/7 activity (RFLU),"[3]; Contr. cells + 10 μM CHEM, 22 hours after treatment, Contr. 235",436 RFLU
same,Caspase-3/7 activity (RFLU),"[3]; androgen deprivation (AD) two days + 5 μM CHEM, 22 hours, AD alone 81",126 RFLU
same,Caspase-3/7 activity (RFLU),"[3]; androgen deprivation (AD) two days + 10 μM CHEM, 22 hours, AD alone 81",115 RFLU
same,apoptosis in CHEM+RT treated cells,[4],enhancement of apoptosis
same,"PSA serum levels, combined treatment compared to either individual treatment",[5],significant decrease
same,apoptosis in CHEM+RT treated cells,[6],enhancement of apoptosis
same,% Annexin V-PE pos. cells,[7]; [8],31.7 ± 1.0 %
same,% Annexin V-PE pos. cells,"[7]; 10 μM CHEM alone, 24 hours incubation, means±SEM, three experiments, control 3.6 ± 0.2",18.6 ± 1.0%
same,% Annexin V-PE pos. cells,[7]; [9],14.6%
same,% Annexin V-PE pos. cells,[7]; [10],21.6%
same,% Annexin V-PE pos. cells,"[7]; Contr. cells + 5 μM CHEM, 22 hours after treatment, Contr. 9.8",13.0%
same,% Annexin V-PE pos. cells,"[7]; Contr. cells + 10 μM CHEM, 22 hours after treatment, Contr. 9.8",17.5%
same,% Annexin V-PE pos. cells,"[7]; androgen deprivation (AD) two days + 5 μM CHEM, 22 hours, AD alone 12.6",15.4%
same,% Annexin V-PE pos. cells,"[7]; androgen deprivation (AD) two days + 10 μM CHEM, 22 hours, AD alone 12.6",27.4%
same,apoptotic response in androgen-deprived LNCaP cells,"[7]; androgen-deprived cells, 5 μM and 10 μM",dose-dependent significant increase
same,reversal of the apoptotic effect by synthetic androgen added prior to treatment,"[7]; androgen-deprived cells, R1881 added two days prior",not reversed
C[C@]1(O)CC[C@H]2[C@@H]3CCC4=CC(=O)CCC4=C3C=C[C@@]21C [R1881],Caspase-3/7 activity (RFLU),"[3]; AD + R1881, no CHEM, AD alone 81",130 RFLU
same,% Annexin V-PE pos. cells,"[7]; AD + R1881, no CHEM, AD alone 12.6",7.0%
magnesium stearate,interaction of excipient with 1-O-octadecyl-2-O-methyl-glycero-3-phosphocholine (DSC thermogram of binary mixture),[1],dominate the thermogram
